Assay type in all cases: cell-based
Experiment [1] deals with T1, hGIPR (Homo sapiens, UniProt P48546).
T1 sequence (P48546 22-466): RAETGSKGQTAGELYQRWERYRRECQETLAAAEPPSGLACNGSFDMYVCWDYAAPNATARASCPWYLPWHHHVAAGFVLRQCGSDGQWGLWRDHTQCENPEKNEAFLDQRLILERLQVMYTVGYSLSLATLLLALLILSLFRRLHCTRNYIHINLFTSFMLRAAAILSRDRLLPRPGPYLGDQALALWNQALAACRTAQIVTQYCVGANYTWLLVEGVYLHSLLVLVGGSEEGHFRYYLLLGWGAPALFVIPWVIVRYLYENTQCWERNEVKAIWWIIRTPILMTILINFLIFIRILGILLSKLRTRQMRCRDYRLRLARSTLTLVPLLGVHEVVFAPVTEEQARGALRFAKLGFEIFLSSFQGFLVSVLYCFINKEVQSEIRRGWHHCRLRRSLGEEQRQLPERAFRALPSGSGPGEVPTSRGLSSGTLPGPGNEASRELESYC
Nature of the experiment: Functional cAMP activity in the presence of 1% HSA. To be noted: read-out: cAMP Rel EC50, hGIPR.

For experiment [2], the target named is T2, hGLP-1R (Homo sapiens, UniProt P43220). Nature of the experiment: Functional cAMP activity in the presence of 1% HSA. To be noted: read-out: cAMP Rel EC50, hGLP-1R.
A further experiment concerns the target human GcgR (Homo sapiens, UniProt P47871). Nature of the experiment: Functional cAMP activity in the presence of 1% HSA. To be noted: read-out: cAMP Rel EC50, hGcgR.
For experiment [3], the target named is T1, hGIPR. Nature of the experiment: Functional cAMP activation in the presence of 0.1% casein (no HSA). To be noted: read-out: Relative cAMP EC50, hGIPR.
The target of experiment [4] is T2, hGLP-1R. The description is as above. To be noted: read-out: Relative cAMP EC50, hGLP-1R.
The target in a further experiment is hGcgR (Homo sapiens, UniProt P47871). The description is as above. To be noted: read-out: Relative cAMP EC50, hGcgR.
The mark [5] stands for this setting: in the presence of 0.1% casein (no HSA), geometric mean.
Setting [6] is: 0.1% casein, no HSA, geometric mean.

Read-outs that look alike come from different tables or passages of the source. Starred links: 1 amine or outer side, 2 acyl side, 3 side chain; linkers in the order of their positions; H or OH if unused. Non-standard residues stand in square brackets, D forms with d. Residues, ends and D or L forms follow the SMILES beside them. Groups on a side chain read outwards from the residue. No end group written: not given here. *: point of attachment. C20 diacid = O=C(O)CCCCCCCCCCCCCCCCCCC(=O)*; C18 diacid = O=C(O)CCCCCCCCCCCCCCCCC(=O)*; αMePhe(2-F) = C[C@](N)(Cc1ccccc1F)C(=O)O; γGlu = O=C(O)[C@H](CCC(=O)[*:2])N[*:1]; αMe4Pal = C[C@](N)(Cc1ccncc1)C(=O)O; αMeY = C[C@](N)(Cc1ccc(O)cc1)C(=O)O; 4Pal = N[C@@H](Cc1ccncc1)C(=O)O; αMeL = CC(C)C[C@](C)(N)C(=O)O; αMeS = C[C@](N)(CO)C(=O)O; Orn = NCCC[C@H](N)C(=O)O; AEEA = NCCOCCOCC(=O)O; Aib = CC(C)(N)C(=O)O

This note sets out measurements from patent US20240270821A1, “GIP/GLP1/GCG TRI-RECEPTOR AGONISTS AND USES THEREOF” (priority 2023, published 2024).
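Throughout, for Relative cAMP EC50, hGIPR: intracellular cAMP rise after 30 min at 37 °C read by HTRF against a standard curve, scaled between buffer alone (0%) and top control ligand concentration (100%), four-parameter fit.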
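Throughout, for Relative cAMP EC50, hGLP-1R: intracellular cAMP rise after 30 min at 37 °C read by HTRF, normalized between buffer only (0%) and maximal control ligand (100%), four-parameter variable-slope fit.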
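Throughout, for Relative cAMP EC50, hGcgR: intracellular cAMP rise after 30 min at 37 °C, read by HTRF against a cAMP standard curve, scaled from buffer only (0%) to maximal control ligand response (100%).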

T2 sequence (P43220 24-463): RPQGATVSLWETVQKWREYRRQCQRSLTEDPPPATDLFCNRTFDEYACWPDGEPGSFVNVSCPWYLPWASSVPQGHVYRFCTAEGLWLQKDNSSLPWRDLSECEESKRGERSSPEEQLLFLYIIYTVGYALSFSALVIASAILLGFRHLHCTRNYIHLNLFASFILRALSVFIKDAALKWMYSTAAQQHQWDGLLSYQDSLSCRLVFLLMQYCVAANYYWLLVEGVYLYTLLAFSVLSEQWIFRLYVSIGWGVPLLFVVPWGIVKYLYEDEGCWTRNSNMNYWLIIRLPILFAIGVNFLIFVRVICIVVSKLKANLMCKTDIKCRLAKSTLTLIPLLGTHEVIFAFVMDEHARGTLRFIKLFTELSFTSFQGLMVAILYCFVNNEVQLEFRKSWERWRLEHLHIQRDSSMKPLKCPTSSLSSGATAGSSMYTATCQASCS
Chain of hGcgR (P47871 26-477): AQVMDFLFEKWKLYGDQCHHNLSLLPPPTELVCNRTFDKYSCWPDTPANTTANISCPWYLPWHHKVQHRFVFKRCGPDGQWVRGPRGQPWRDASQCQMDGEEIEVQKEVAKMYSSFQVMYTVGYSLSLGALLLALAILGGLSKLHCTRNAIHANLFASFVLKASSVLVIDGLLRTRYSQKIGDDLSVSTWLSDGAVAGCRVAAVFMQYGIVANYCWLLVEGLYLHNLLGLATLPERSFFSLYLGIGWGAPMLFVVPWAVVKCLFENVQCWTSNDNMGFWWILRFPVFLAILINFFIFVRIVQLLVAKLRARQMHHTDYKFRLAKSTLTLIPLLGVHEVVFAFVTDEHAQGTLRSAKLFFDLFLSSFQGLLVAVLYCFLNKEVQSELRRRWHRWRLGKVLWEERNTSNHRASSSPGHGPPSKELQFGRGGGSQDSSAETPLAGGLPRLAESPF
Chain of human GcgR (P47871 26-477): as above

Take `CC[C@H](C)[C@H](NC(=O)[C@H](CC(C)C)NC(=O)[C@H](Cc1ccc(O)cc1)NC(=O)[C@H](CCC(=O)O)NC(=O)[C@@H](NC(=O)[C@H](Cc1ccccc1)NC(=O)[C@H](C)NC(=O)C(C)(C)NC(=O)[C@H](CCC(N)=O)NC(=O)[C@H](C)NC(=O)[C@H](CCCCNC(=O)COCCOCCNC(=O)COCCOCCNC(=O)CC[C@H](NC(=O)CCCCCCCCCCCCCCCCCCC(=O)O)C(=O)O)NC(=O)[C@H](CCCCN)NC(=O)[C@H](CC(=O)O)NC(=O)[C@H](CC(C)C)NC(=O)[C@](C)(CC(C)C)NC(=O)[C@@H](NC(=O)[C@](C)(CO)NC(=O)[C@H](Cc1ccc(O)cc1)NC(=O)[C@H](CC(=O)O)NC(=O)[C@H](CO)NC(=O)[C@@H](NC(=O)[C@H](Cc1ccccc1)NC(=O)[C@@H](NC(=O)CNC(=O)[C@H](CCC(N)=O)NC(=O)C(C)(C)NC(=O)[C@@H](N)Cc1ccc(O)cc1)[C@@H](C)O)[C@@H](C)O)[C@@H](C)CC)[C@@H](C)CC)C(=O)N[C@@H](CCC(=O)O)C(=O)NCC(=O)NCC(=O)N1CCC[C@H]1C(=O)N[C@@H](CO)C(=O)N[C@@H](CO)C(=O)NCC(=O)N[C@@H](C)C(=O)N1CCC[C@H]1C(=O)N1CCC[C@H]1C(=O)N1CCC[C@H]1C(=O)N[C@@H](CO)C(N)=O` [Example 382] (H-Y[Aib]QGTFTSDY[αMeS]I[αMeL]LDKK([AEEA-AEEA-γGlu-C20 diacid])AQ[Aib]AFIEYLIEGGPSSGAPPPS-NH2): the 50% effective concentration (EC50) (commonly the midpoint of the concentration-response curve) at hGIPR [1] came out at 17.7 nM; at hGLP-1R [2], 61.5 nM; on human GcgR, 1050 nM; at hGIPR [3] (setting [5]) it was 0.0368 nM; at hGLP-1R [4] (setting [5]), 0.291 nM; at hGcgR (setting [5]), 3.72 nM.

For the molecule “H-Y[Aib]QGT[αMePhe(2-F)]TSD[4Pal][αMeS]I[αMeL]LD[Orn]K([AEEA-γGlu-C18 diacid])AQ[Aib]NFIEYLIEGGPSSGEPPPEEG-NH2 [Example 482]”, the concentration for a half-maximal effect (EC50) came out at 1.58 nM at hGIPR [1]; 14.9 nM on hGLP-1R [2]; 325 nM on human GcgR; 0.0139 nM at hGIPR [3]; 0.177 nM on hGLP-1R [4]; 1.41 nM on hGcgR.

For the molecule “H-Y[Aib]QGTFTSD[4Pal]SQ[αMeL]LD[Orn]K([AEEA-γGlu-C18 diacid])AQ[Aib]AFIE[αMeY]LLEGGPSSGAPPPSGS-NH2 [Example 911]”, the EC50 at hGIPR [1] is 26.6 nM; at hGLP-1R [2], 255 nM; on human GcgR, 2390 nM; at hGIPR [3] (setting [5]), 0.197 nM; at hGLP-1R [4] (setting [5]), 1.09 nM; on hGcgR (setting [5]), 9.53 nM.

Regarding `CC[C@H](C)[C@H](NC(=O)[C@H](Cc1ccccc1)NC(=O)[C@H](C)NC(=O)[C@](C)(Cc1ccncc1)NC(=O)[C@H](CCC(N)=O)NC(=O)[C@H](C)NC(=O)[C@H](CCCCNC(=O)COCCOCCNC(=O)CC[C@H](NC(=O)CC[C@H](NC(=O)CCCCCCCCCCCCCCCCC(=O)O)C(=O)O)C(=O)O)NC(=O)[C@H](CCCCN)NC(=O)[C@H](CC(=O)O)NC(=O)[C@H](CC(C)C)NC(=O)[C@](C)(CC(C)C)NC(=O)[C@H](CCC(N)=O)NC(=O)[C@H](CO)NC(=O)[C@H](Cc1ccncc1)NC(=O)[C@H](CC(=O)O)NC(=O)[C@H](CO)NC(=O)[C@@H](NC(=O)[C@H](Cc1ccccc1)NC(=O)[C@@H](NC(=O)CNC(=O)[C@H](CCC(N)=O)NC(=O)C(C)(C)NC(=O)[C@@H](N)Cc1ccc(O)cc1)[C@@H](C)O)[C@@H](C)O)C(=O)N[C@@H](CCC(=O)O)C(=O)N[C@@H](Cc1ccc(O)cc1)C(=O)N[C@@H](CC(C)C)C(=O)N[C@H](C(=O)N[C@@H](CCC(=O)O)C(=O)N[C@H](C)C(=O)NCC(=O)N1CCC[C@H]1C(=O)N[C@@H](CO)C(=O)N[C@@H](CO)C(=O)NCC(=O)N[C@@H](C)C(=O)N1CCC[C@H]1C(=O)N1CCC[C@H]1C(=O)N1CCC[C@H]1C(=O)N[C@@H](CO)C(=O)NCC(=O)N[C@@H](CO)C(=O)N[C@@H](CCC(=O)O)C(N)=O)[C@@H](C)CC` [Example 1024], the half-maximal effective concentration (EC50) at hGIPR [1] was determined as 32.5 nM; on hGLP-1R [2], 330 nM; at human GcgR, 760 nM; on hGIPR [3] (setting [5]), 0.441 nM; at hGLP-1R [4] (setting [5]) it was 4.79 nM; at hGcgR (setting [5]), 10.6 nM.

As to “H-Y[Aib]QGT[αMePhe(2-F)]TSD[4Pal][αMeS]I[αMeL]LD[Orn]K([γGlu-γGlu-C18 diacid])AQ[αMe4Pal]EFI[dE][αMeY]LVEGGPSSGAPPPSGE-NH2 [Example 1160]”, the EC50 on hGIPR [1] came out at 0.598 nM; on hGLP-1R [2] it was 31.2 nM; on human GcgR it was 183 nM; at hGIPR [3] (setting [5]) it was 0.00773 nM; on hGLP-1R [4] (setting [5]) it was 0.365 nM; on hGcgR (setting [5]) it was 2.41 nM.

Take “Y[Aib]QGT[αMePhe(2-F)]TSD[4Pal][αMeS]I[αMeL]LD[Orn]K([AEEA-γGlu-C18 diacid])AQ[αMe4Pal]EFI[dE][αMeY]LIEGGPPS[Aib][Orn]PPP[Orn]SE-NH2 [Example 1196]”: the 50% effective concentration (EC50) stood at 0.605 nM on hGIPR [1]; 45.4 nM on hGLP-1R [2]; 257 nM at human GcgR; 0.00756 nM at hGIPR [3] (setting [6]); 0.418 nM at hGLP-1R [4] (setting [6]); 1.9 nM on hGcgR (setting [6]).

For the molecule “H-Y[Aib]QGTFTSD[4Pal]SQ[αMeL]LDKK([AEEA-γGlu-C18 diacid])AQ[Aib]AFIE[αMeY]LIEGGPSSGAPPPEGS-NH2 [Example 853]”, the concentration for a half-maximal effect (EC50) at hGIPR [1] stood at 32.4 nM; on hGLP-1R [2], 102 nM; at human GcgR, 4500 nM; on hGIPR [3] (setting [5]), 0.224 nM; on hGLP-1R [4] (setting [5]), 0.507 nM; on hGcgR (setting [5]), 26.5 nM.

Turning to “H-Y[Aib]QGT[αMePhe(2-F)]TSD[4Pal]SI[αMeL]LD[Orn]K([AEEA-γGlu-C18 diacid])AQ[Aib][Orn]FIEYLIEGGPSSGEPPPEEG-NH2 [Example 477]”, the 50% effective concentration (EC50) was found to be 1.44 nM at hGIPR [1]; 18.7 nM on hGLP-1R [2]; 716 nM on human GcgR; 0.0127 nM on hGIPR [3]; 0.173 nM at hGLP-1R [4]; 5.26 nM on hGcgR.

Regarding “H-Y[Aib]QGT[αMePhe(2-F)]TSD[4Pal]SILLDKK([γGlu-γGlu-C18 diacid])AQ[Aib]AFIEYLEEGGPSSGAPPPSGTEE-NH2 [Example 609]”, the concentration for a half-maximal effect (EC50) turned out to be 6.19 nM on hGIPR [1]; 121 nM on hGLP-1R [2]; 647 nM at human GcgR; 0.0784 nM on hGIPR [3]; 1.07 nM on hGLP-1R [4]; 6.46 nM at hGcgR.

Take “H-Y[Aib]QGTFTSD[4Pal]S[Orn][αMeL]LD[Orn]K([γGlu-γGlu-C18 diacid])AQ[Aib]AFIEYLLAGGPSSGAPPPSGSEE-NH2 [Example 1069]”: the concentration giving a half-maximal response (EC50) was determined as 39.5 nM at hGIPR [1]; 1290 nM at hGLP-1R [2]; 2160 nM on human GcgR; 0.417 nM at hGIPR [3] (setting [5]); 8.87 nM at hGLP-1R [4] (setting [5]); 21.2 nM on hGcgR (setting [5]).

Consider “H-Y[Aib]QGTFTSD[4Pal]SQ[αMeL]LD[Orn]K([dE-γGlu-C18 diacid])AQ[αMe4Pal]AFIE[αMeY]LLAGGPSSGAPPPSGSEEE-NH2 [Example 1082]”, for which the concentration giving a half-maximal response (EC50) on hGIPR [1] is 12.3 nM; at hGLP-1R [2], 677 nM; on human GcgR, 1530 nM; at hGIPR [3] (setting [5]), 0.099 nM; on hGLP-1R [4] (setting [5]) it was 4.13 nM; at hGcgR (setting [5]), 12.3 nM.

In the case of “H-Y[Aib]QGT[αMePhe(2-F)]TSD[4Pal]SI[αMeL]LD[Orn]K([γGlu-γGlu-C18 diacid])AQ[αMe4Pal][Orn]FI[dE][αMeY]LIEGGPSSGEPPPSGE-NH2 [Example 682]”, the concentration giving a half-maximal response (EC50) at hGIPR [1] is 0.415 nM; at hGLP-1R [2], 14 nM; on human GcgR, 127 nM; at hGIPR [3], 0.00661 nM; at hGLP-1R [4] it was 0.212 nM; on hGcgR, 1.91 nM.

On to “H-Y[Aib]QGT[αMePhe(2-F)]TSD[4Pal][αMeS]I[αMeL]LD[Orn]QAQ[αMe4Pal]EFI[dE][αMeY]LIEGGPSSGAPPPSGSE-NH2 [Example 1233]”, for which the EC50 on hGIPR [1] turned out to be 0.00988 nM; at hGLP-1R [2], 1.06 nM; on human GcgR it was 9.9 nM; on hGIPR [3] (setting [6]), 0.012 nM; on hGLP-1R [4] (setting [6]), 1.09 nM; at hGcgR (setting [6]) it was 9.48 nM.
